Literature values, collected in PMC4412765 (Chemical biology & drug design, 2014).

Test system: S. aureus
Settings: cited from earlier work

Compound: C(=C\c1cc2ccc(C3=NCCN3)cc2[nH]1)/c1cc2ccc(C3=NCCN3)cc2[nH]1 [BPH-1417]
- in vitro activity against S. aureus: potent
